Test results reported in PubChem BioAssay AID493086 (The Scripps Research Institute Molecular Screening Center, 2011).
Active and inactive are the calls of the source.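 How the source made its calls: active means IC50 at or below 10 µM; inactive means IC50 above 10 µM.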

biological target: Induced myeloid leukemia cell differentiation protein Mcl-1 (Homo sapiens) (UniProt Q07820); assay: MCL1 binding to BIM-BH3 peptide, inhibitors, late-stage follow-up, biochemical, fluorescence polarization, assay provider data, powder samples (AID 493086); details: GST-MCL1 / FITC-BIM-BH3 fluorescence polarization
Sequence (Q07820 whole entry, looked up): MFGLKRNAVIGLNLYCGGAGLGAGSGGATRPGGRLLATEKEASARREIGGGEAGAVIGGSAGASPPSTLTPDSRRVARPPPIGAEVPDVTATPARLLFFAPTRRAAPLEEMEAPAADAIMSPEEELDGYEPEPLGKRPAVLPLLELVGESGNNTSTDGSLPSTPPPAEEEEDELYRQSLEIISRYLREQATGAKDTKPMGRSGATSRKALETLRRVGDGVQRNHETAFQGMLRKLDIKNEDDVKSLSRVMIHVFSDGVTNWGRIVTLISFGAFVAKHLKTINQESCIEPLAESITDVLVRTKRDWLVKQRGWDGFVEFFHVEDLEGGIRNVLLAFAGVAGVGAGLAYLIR

Row | IC50 | Compound
1 | > 20 µM (inactive) | CN(C)C(CNC(=O)c1cc(-c2ccco2)nc2ccccc12)c1ccccc1 (stereo not given)
2 | 4.4 µM | O=C(NC1CC1)c1cc(-c2ccco2)nc2ccccc12
3 | > 20 µM (inactive) | COc1ccccc1NC(=O)c1cc(-c2ccc(C)o2)nc2ccccc12
4 | > 20 µM (inactive) | NS(=O)(=O)c1ccc(CCNC(=O)c2cc(-c3ccco3)nc3ccccc23)cc1
5 | > 20 µM (inactive) | O=C(Nc1cccc(S(=O)(=O)NC2=NCCCCC2)c1)c1cc(-c2ccco2)nc2ccccc12
6 | inactive | Cc1csc(NC(=O)c2cc(-c3ccco3)nc3ccccc23)n1
7 | > 20 µM (inactive) | COc1cccc(NC(=O)c2cc(-c3ccco3)nc3ccccc23)c1
8 | > 20 µM (inactive) | Cc1ccc2nc(NC(=O)c3cc(-c4ccco4)nc4ccccc34)sc2c1
9 | > 20 µM (inactive) | Cc1ccc(NC(=O)c2cc(-c3ccc(C)o3)nc3ccccc23)cc1
10 | inactive | COc1ccc(NC(=O)c2cc(-c3ccco3)nc3ccccc23)cc1S(=O)(=O)N1CCOCC1
11 | inactive | Cc1ccc(NC(=O)c2cc(-c3ccco3)nc3ccccc23)cc1S(=O)(=O)N1CCOCC1
12 | inactive | O=C(Nc1ccccc1N1CCOCC1)c1cc(-c2ccco2)nc2ccccc12
13 | > 20 µM (inactive) | COc1ccc(CCNC(=O)c2cc(-c3ccco3)nc3ccccc23)cc1
14 | > 20 µM (inactive) | Cc1ccc(-c2cc(C(=O)NCC(c3ccccc3)N(C)C)c3ccccc3n2)o1 (stereo not given)
15 | > 20 µM (inactive) | COc1cccc(NC(=O)CN(C)C(=O)c2cc(-c3ccco3)nc3ccccc23)c1
16 | inactive | O=C(Nc1ccccc1F)c1cc(-c2ccco2)nc2ccccc12
17 | > 20 µM (inactive) | Cc1ccc(S(=O)(=O)N(C)C)cc1NC(=O)c1cc(-c2ccco2)nc2ccccc12
18 | > 20 µM (inactive) | CN(CCOc1ccc(Cl)cc1)C(=O)c1cc(-c2ccco2)nc2ccccc12
19 | > 20 µM (inactive) | CC(C)CCNC(=O)c1cc(-c2ccco2)nc2ccccc12
20 | inactive | O=C(NCC1CCCO1)c1cc(-c2ccco2)nc2ccccc12 (stereo not given)
21 | > 20 µM (inactive) | O=C(NC(=S)Nc1cccc(S(=O)(=O)NC2=NCCC2)c1)c1cc(-c2ccco2)nc2ccccc12

Row | IC50 | Compound
22 | > 20 µM (inactive) | CN(CC(=O)Nc1ccc(F)cc1)C(=O)c1cc(-c2ccco2)nc2ccccc12
23 | inactive | O=C(Nc1nccs1)c1cc(-c2ccco2)nc2ccccc12
24 | > 20 µM (inactive) | Cc1ccc(-c2cc(C(=O)Nc3ccccc3C(N)=O)c3ccccc3n2)o1
25 | > 20 µM (inactive) | O=C(c1cc(-c2ccco2)nc2ccccc12)N1CCN(Cc2ccccc2)CC1
26 | inactive | O=C(Nc1nncs1)c1cc(-c2ccco2)nc2ccccc12
27 | > 20 µM (inactive) | COc1ccc(NC(=O)c2cc(-c3ccco3)nc3ccccc23)cc1
28 | > 20 µM (inactive) | CC(=O)c1cccc(NC(=O)c2cc(-c3ccco3)nc3ccccc23)c1
29 | inactive | Cc1cccc(NC(=O)c2cc(-c3ccco3)nc3ccccc23)n1
30 | inactive | Cc1ccc(-c2cc(C(=O)Nc3ccccn3)c3ccccc3n2)o1
31 | > 20 µM (inactive) | COc1ccc(NC(=O)c2cc(-c3ccc(C)o3)nc3ccccc23)cc1
32 | > 20 µM (inactive) | O=C(Nc1nc2ccccc2s1)c1cc(-c2ccco2)nc2ccccc12
33 | inactive | O=C(Nc1cccc(S(=O)(=O)NC2=NCCC2)c1)c1cc(-c2ccco2)nc2ccccc12
34 | > 20 µM (inactive) | COc1cccc(NC(=O)c2cc(-c3ccc(C)o3)nc3ccccc23)c1
35 | inactive | Cc1nnc(NC(=O)c2cc(-c3ccco3)nc3ccccc23)s1
36 | > 20 µM (inactive) | O=C(Nc1ccc(F)cc1F)c1cc(-c2ccco2)nc2ccccc12
37 | > 20 µM (inactive) | CCN(CC)CCNC(=O)c1cc(-c2ccco2)nc2ccccc12
38 | > 20 µM (inactive) | CCc1nnc(NC(=O)c2cc(-c3ccc(C)o3)nc3ccccc23)s1
39 | > 20 µM (inactive) | Cc1ccc(-c2cc(C(=O)Nc3ccccc3C)c3ccccc3n2)o1
40 | inactive | Cc1ccc(-c2cc(C(=O)Nc3cccnc3)c3ccccc3n2)o1
41 | > 20 µM (inactive) | Cc1ccc(-c2cc(C(=O)Nc3nccs3)c3ccccc3n2)o1
42 | > 20 µM (inactive) | CCCCCCNC(=O)c1cc(-c2ccco2)nc2ccccc12

Continued, molecule first:

Row | Compound | IC50
43 | O=C(c1cc(-c2ccco2)nc2ccccc12)N1CCN(c2ccc(F)cc2)CC1 | > 20 µM (inactive)
44 | CCCC(=O)Nc1nnc(Cc2ccccc2)s1 | > 20 µM (inactive)
45 | CC(=O)N1CCN(C(=O)c2cc(-c3ccc(C)o3)nc3ccccc23)CC1 | > 20 µM (inactive)
46 | CCCCN(C(=O)c1cc(-c2ccco2)nc2ccccc12)c1c(N)n(CCCC)c(=O)[nH]c1=O | > 20 µM (inactive)
47 | COc1cccc(NC(=O)CN(C)C(=O)c2cc(-c3ccc(C)o3)nc3ccccc23)c1 | > 20 µM (inactive)
48 | COc1cccc(CC(=O)Nc2nnc(Cc3ccc(OC)c(OC)c3)s2)c1 | > 20 µM (inactive)
49 | CCCn1c(N)c(N(CCOC)C(=O)c2cc(-c3ccco3)nc3ccccc23)c(=O)[nH]c1=O | > 20 µM (inactive)
50 | O=C(CCn1nnc2ccccc21)Nc1nnc(Cc2ccccc2)s1 | > 20 µM (inactive)
51 | Cc1ccc(-c2cc(C(=O)N3CCN(c4ncccn4)CC3)c3cc(Br)ccc3n2)o1 | inactive
52 | CCOC(=O)c1cc(-c2ccco2)nc2c1c(C)nn2-c1ccccc1 | > 20 µM (inactive)
53 | COCCCN(C(=O)c1cc(-c2ccco2)nc2ccccc12)c1c(N)n(Cc2ccccc2)c(=O)[nH]c1=O | > 20 µM (inactive)
54 | CCCCn1c(N)c(N(CCC(C)C)C(=O)c2cc(-c3ccco3)nc3ccccc23)c(=O)[nH]c1=O | > 20 µM (inactive)
55 | COc1ccc(Cc2nnc(NC(=O)Cc3ccc(Oc4ccccc4)cc3)s2)cc1OC | > 20 µM (inactive)
56 | COc1ccc(Cc2nnc(NC(=O)Cc3ccccc3C)s2)cc1OC | > 20 µM (inactive)
57 | Cc1ccc(-c2cc(C(=O)NCCN3CCOCC3)c3ccccc3n2)o1 | > 20 µM (inactive)
58 | Cc1ccc(-c2cc(C(=O)Nc3cccc(S(=O)(=O)N(C)C)c3)c3ccccc3n2)o1 | > 20 µM (inactive)
59 | COc1ccc(Cc2nnc(NC(=O)Cc3ccc4c(c3)OCO4)s2)cc1OC | > 20 µM (inactive)
60 | COC(=O)C1CCN(C(=O)c2cc(-c3ccco3)nc3ccccc23)CC1 | 7.3 µM
61 | COc1ccc(NC(=O)c2cc(-c3ccc(C)o3)nc3ccccc23)c(OC)c1 | > 20 µM (inactive)
62 | COc1ccc(Cc2nnc(NC(=O)Cc3ccc4ccccc4c3)s2)cc1OC | > 20 µM (inactive)
63 | Cc1ccc(-c2cc(C(=O)N(C)CC(=O)Nc3ccccc3Br)c3ccccc3n2)o1 | > 20 µM (inactive)
64 | COc1ccc(Cc2nnc(NC(=O)C(F)c3ccccc3)s2)cc1OC (stereo not given) | > 20 µM (inactive)
65 | Cc1ccc(-c2cc(C(=O)NCCCn3ccnc3)c3cc(Br)ccc3n2)o1 | inactive
66 | CCOC(=O)c1cc(-c2ccco2)nc2c1c(C)nn2-c1cccc(Cl)c1 | > 20 µM (inactive)
67 | COc1ccc(Cc2nnc(NC(=O)Cc3sc(=S)[nH]c3C)s2)cc1OC | > 20 µM (inactive)
68 | O=C(NCCCN1CCOCC1)c1cc(-c2ccco2)nc2ccccc12 | > 20 µM (inactive)
69 | CCCN(C(=O)c1cc(-c2ccco2)nc2ccccc12)c1c(N)n(Cc2ccccc2)c(=O)[nH]c1=O | inactive

Row | Compound | IC50
70 | Cc1ccc(-c2cc(C(=O)N3CCOCC3)c3ccccc3n2)o1 | > 20 µM (inactive)
71 | COCCN(C(=O)c1cc(-c2ccco2)nc2ccccc12)c1c(N)n(Cc2ccccc2)c(=O)[nH]c1=O | 3.4 µM
72 | COc1ccc(Cc2nnc(NC(=O)Cc3ccncc3)s2)cc1OC | > 20 µM (inactive)
73 | COc1ccc(Cc2nnc(NC(=O)Cc3cccs3)s2)cc1 | > 20 µM (inactive)
74 | COc1ccccc1CC(=O)Nc1nnc(Cc2ccc(OC)c(OC)c2)s1 | > 20 µM (inactive)
75 | O=C(c1cc(-c2ccco2)nc2ccccc12)N(Cc1nnc(-c2ccc(Cl)cc2)o1)C1CC1 | > 20 µM (inactive)
76 | Cc1ccc(-c2cc(C(=O)N3CCN(c4ccc(F)cc4)CC3)c3ccccc3n2)o1 | > 20 µM (inactive)
77 | Cc1ccc(-c2cc(C(=O)N3CCN(c4ccccc4O)CC3)c3ccccc3n2)o1 | > 20 µM (inactive)
78 | COc1ccc(Cc2nnc(NC(=O)Cc3ccc(C)cc3)s2)cc1OC | > 20 µM (inactive)
79 | Cc1ccc(-c2cc(C(=O)N3CC(C)OC(C)C3)c3ccccc3n2)o1 (stereo not given) | > 20 µM (inactive)
80 | Cc1ccc(-c2cc(C(=O)N3CC(C)CC(C)C3)c3ccccc3n2)o1 (stereo not given) | > 20 µM (inactive)
81 | COc1ccc(Cc2nnc(NC(=O)Cc3cccnc3)s2)cc1OC | > 20 µM (inactive)
82 | COc1ccc(Cc2nnc(NC(=O)Cc3ccsc3)s2)cc1OC | > 20 µM (inactive)
83 | COc1ccc(Cc2nnc(NC(=O)CCc3cccs3)s2)cc1OC | > 20 µM (inactive)
84 | CCCCn1c(N)c(N(CCOC)C(=O)c2cc(-c3ccco3)nc3ccccc23)c(=O)[nH]c1=O | > 20 µM (inactive)
85 | O=C(CCn1nnc2ccccc21)Nc1nnc(Cc2ccc(F)cc2)s1 | > 20 µM (inactive)
86 | CCN1CCN(C(=O)c2cc(-c3ccco3)nc3ccccc23)CC1 | 6.7 µM
87 | CCCCn1c(N)c(N(CC(C)C)C(=O)c2cc(-c3ccco3)nc3ccccc23)c(=O)[nH]c1=O | > 20 µM (inactive)
88 | O=C(NC1CCC(O)CC1)c1cc(-c2ccco2)nc2ccccc12 (stereo not given) | inactive
89 | COc1ccc(Cc2nnc(NC(=O)Cc3ccccn3)s2)cc1OC | > 20 µM (inactive)
90 | COc1ccc(CC(=O)Nc2nnc(Cc3ccc(OC)c(OC)c3)s2)cc1 | > 20 µM (inactive)
91 | CCC(=O)Nc1nnc(Cc2ccccc2)s1 | > 20 µM (inactive)
92 | COc1ccc(NC(=O)CN(C)C(=O)c2cc(-c3ccc(C)o3)nc3ccccc23)cc1 | > 20 µM (inactive)
93 | COc1ccc(Cc2nnc(NC(=O)Cc3c[nH]c4ccccc34)s2)cc1OC | > 20 µM (inactive)
94 | CC1CCCN(C(=O)c2cc(-c3ccco3)nc3ccccc23)C1 (stereo not given) | > 20 µM (inactive)
95 | CCOc1cc(N2CCOCC2)c(OCC)cc1NC(=O)c1cc(-c2ccco2)nc2ccccc12 | > 20 µM (inactive)
